Assay results as given in paper PMC8433052 (iScience, 2021).
Where two headings read alike, the source gives them in different places.

Tests used:
WNV = assay: CPE-based antiviral assay (MTT), WNV in BHK-21; assay type: cell-based; settings: West Nile virus, BHK-21, 72 h, read-out: EC50 against WNV
[1] = Cytotoxicity against Caco-2 cells; assay type: cell-based; settings: human
Experimental: (§1) The MTT (3-[4,5-dimethyl-2-thiazolyl]-2,5-diphenyl-2H-tetrazolium bromide) and resazurin reduction assays were carried out as previously described ([Nobori et al., 2018]; [Sanaki et al., 2019]). These were performed to calculate cell viability following viral induced CPE or cytotoxicity. Assay conditions for flaviviruses are as described in Table 2.

[2] = Cytotoxicity against A549/TMPRSS2 cells; assay type: cell-based; settings: human
Experimental: as §1

ZIKV = assay: CPE-based antiviral assay (MTT), ZIKV in BHK-21; assay type: cell-based; settings: Zika virus, BHK-21, 72 h, read-out: EC50 against ZIKV
DENV2 = assay: CPE-based antiviral assay (resazurin), DENV2 in BHK-21; assay type: cell-based, Dengue virus 2; settings: Dengue virus, DENV2, BHK-21, 96 h, read-out: EC50 against DENV2
DENV4 = assay: CPE-based antiviral assay (resazurin), DENV4 in BHK-21; assay type: cell-based, Dengue virus 4; settings: Dengue virus, DENV4, BHK-21, 120 h, read-out: EC50 against DENV4
SARS-CoV [3] = assay type: cell-based; settings: supernatants of SARS-CoV-infected Caco-2 cells, 0.5 μM, 48 hpi
HCoV-OC43 [4] = assay: Immunofluorescence assay of viral nucleoprotein, HCoV-OC43 in A549/TMPRSS2 cells; assay type: cell-based, Human coronavirus OC43; settings: HCoV-OC43 MOI 1, 48 hpi
SARS-CoV-2 [5] = assay type: cell-based
DENV1 = assay: CPE-based antiviral assay (resazurin), DENV1 in BHK-21; assay type: cell-based, Dengue virus 1; settings: Dengue virus, DENV1, BHK-21, 120 h, read-out: EC50 against DENV1
[6] = Cytotoxicity against Huh7 cells; assay type: cell-based; settings: human
Experimental: as §1

HCoV-OC43 [7] = assay type: cell-based, Human coronavirus OC43
HCoV-OC43 [8] = assay: qRT-PCR of viral RNA, HCoV-OC43-infected Huh7 cells; assay type: cell-based, Human coronavirus OC43; settings: MOI 0.1, 48 hpi, serially diluted compound
SARS-CoV [9] = assay type: cell-based; settings: MRC5/ACE2 cells, 1 μM, 48 hpi
SARS-CoV-2 [10] = assay: qRT-PCR analysis of SARS-CoV-2 in Caco-2 cells (rescreening, supernatant viral RNA); assay type: cell-based; settings: Severe acute respiratory syndrome coronavirus 2; qRT-PCR analysis using Caco-2 cells, MOI 0.1, 48 h
SARS-CoV-2 [11] = assay: Immunofluorescence assay of viral spike protein, SARS-CoV-2 in MRC5/ACE2 cells; assay type: cell-based
HCoV-229E [12] = assay: qRT-PCR of viral RNA, HCoV-229E-infected Huh7 cells; assay type: cell-based, Human coronavirus 229E; settings: MOI 0.05, 48 hpi, serially diluted compound
SARS-CoV-2 [13] = assay: Time-of-addition assay, SARS-CoV-2 in Caco-2 cells; assay type: cell-based; settings: 1 μM added at 3 hpi, read at 24 hpi
Experimental: The time-of-addition assay was performed according to previous reports ([Ohashi et al., 2021]; [Wang et al., 2020]). Briefly, Caco-2 cells were seeded on the day before SARS-CoV-2 infection (MOI of 0.1) and compound treatment. One micromolar HMTU or DMSO was then added at the indicated time points (Whole, Entry, and Post-entry). For “Whole” treatment, the cells were incubated with both the compound and virus for 1 h. After incubation, unbound viruses were removed, and the cells were cultured with HMTU-containing medium for 2 h to allow viral entry. At 3 hpi, culture supernatants were replaced with new HMTU-containing media and maintained until the end of the experiment. For “Entry” treatment, the cells were incubated as described above, and at 3 hpi, HMTU-containing media were replaced with fresh culture media and maintained until the end of the experiments. For “Post-entry” treatment, HMTU was added to the virus-infected cells at 3 hpi and maintained until the end of the experiment. At 24 hpi, total RNA was isolated, and viral RNA was quantified using qRT–PCR analysis as described above. Supernatants were collected, after which serial dilutions of these supernatants were used to inoculate a monolayer of the VeroE6/TMPRSS2 cells. Three days after inoculation, the CPE was scored, and TCID50/mL was calculated to measure viral titers.

HCoV-229E [14] = assay: Resazurin reduction assay, HCoV-229E-infected MRC5 cells; settings: for EC50: Human coronavirus 229E
YFV = assay: microbe, parasite or virus in culture; assay type: cell-based; settings: Yellow fever virus, BHK-21, 72 h, read-out: EC50 against YFV
SARS-CoV-2 [15] = assay: qRT-PCR of viral RNA, SARS-CoV-2-infected Caco-2 cells; assay type: cell-based; settings: MOI 0.1, 48 hpi
[16] = Cytotoxicity assay in BHK-21 cells; assay type: cell-based, Hamster; settings: hamster
BHK-21 cells = assay: Cytotoxicity assay in BHK-21 cells; assay type: cell-based, Hamster; settings: concentrations up to 20 μM
JEV = assay: CPE-based antiviral assay (MTT), JEV in BHK-21; assay type: cell-based; settings: Japanese encephalitis virus, BHK-21, 72 h, read-out: EC50 against JEV
[17] = Cytotoxicity against VeroE6/TMPRSS2 cells; assay type: cell-based; settings: African green monkey
Experimental: as §1

SARS-CoV [18] = assay type: cell-based; settings: Caco-2 cells, MOI 0.1, 48 hpi
MRC5 cells = assay: Cytotoxicity against MRC5 cells; assay type: cell-based, Human; settings: mean from three independent experiments (Table 4), read-out: CC50 MRC5, mean
Experimental: as §1

[19] = Cytotoxicity against MRC5 cells; assay type: cell-based, Human; settings: human, rescreening (Table 3), read-out: CC50
Experimental: as §1

HCoV-OC43 [20] = assay: Resazurin reduction assay, HCoV-OC43-infected MRC5 cells
DENV3 = assay: CPE-based antiviral assay (resazurin), DENV3 in BHK-21; assay type: cell-based, Dengue virus 3; settings: Dengue virus, DENV3, BHK-21, 120 h, read-out: EC50 against DENV3
[21] = MRC5 cells, resazurin reduction assay

For Nc1ncnc2c1c(CO)cn2[C@@H]1O[C@H](CO)[C@@H](O)[C@H]1O [HUP1108, 5-hydroxymethyltubercidin], the EC50 (WNV) was 950 nM, the CC50 [1] was > 20000 nM and the CC50 [2] was > 20000 nM. It also gave an EC50 (ZIKV) of 1300 nM, an EC50 (DENV2) of 240 nM and an EC50 (DENV4) of 520 nM. The “reduction of progeny virus titer” value (SARS-CoV [3]) was “more than 1 log TCID50/mL”, the “positive signals of viral nucleoprotein (IFA)” value (HCoV-OC43 [4]) was “decreased in a dose-dependent fashion” and the “reduction of progeny virus titer” value (SARS-CoV-2 [5]) was “more than 1 log TCID50/mL”. The EC50 (DENV1) was 350 nM, the CC50 [6] was > 20000 nM and the “reduction in progeny virus titer” value (HCoV-OC43 [7]) was > 1 log. For the same compound, the “HCoV-OC43 replication, subgenomic (nucleocapsid) and genomic (ORF1b) RNA transcripts” value (HCoV-OC43 [8]) was “dose-dependent inhibition”, the “viral spike protein expression (IFA)” value (SARS-CoV [9]) was “significantly inhibited” and the EC90 (SARS-CoV-2 [10]) was 570 nM. For the same compound, the “viral spike protein expression (IFA)” value (SARS-CoV-2 [11]) was “significantly inhibited”, the “HCoV-229E replication, subgenomic (nucleocapsid) and genomic (ORF1b) RNA transcripts” value (HCoV-229E [12]) was “dose-dependent inhibition” and the “intracellular and extracellular viral RNAs, post-entry step” value (SARS-CoV-2 [13]) was “significantly reduced”. For the same compound, the EC50 (HCoV-229E [14]; MRC5, read-out: HCoV-229E EC50) was 430 nM, the EC50 (HCoV-229E [14]; MRC5, read-out: HCoV-229E EC50, mean) was 528 nM and the “selectivity index (SI = CC50/EC50) for HCoV-229E” value (HCoV-229E [14]; MRC5 cells) was > 94. The “anti-HCoV-229E activity (in words)” value (HCoV-229E [14]; [21]) was “strong antiviral activities”, the EC50 (YFV) was 270 nM and the “SARS-CoV-2 RNA replication, subgenomic (nucleocapsid) and genomic (RdRp) transcripts” value (SARS-CoV-2 [15]) was “inhibited in a dose-dependent manner”. For the same compound, the CC50 [16] was > 20000 nM, the “cytotoxicity (in words)” value (BHK-21 cells) was “did not exhibit cytotoxicity” and the EC50 (JEV) was 500 nM. For the same compound, the CC50 [17] was > 20000 nM, the “SARS-CoV RNA replication, subgenomic (nucleocapsid) and genomic (RdRp) transcripts” value (SARS-CoV [18]) was “inhibited in a dose-dependent manner” and the CC50 (MRC5 cells) was > 50000 nM. The CC50 [19] was > 50000 nM, the EC50 (HCoV-OC43 [20]; Betacoronavirus 1, OC43, MRC5, read-out: HCoV-OC43 EC50) was 350 nM and the EC50 (HCoV-OC43 [20]; Betacoronavirus 1, OC43, MRC5, read-out: HCoV-OC43 EC50, mean) was 378 nM. For the same compound, the “selectivity index (SI = CC50/EC50) for HCoV-OC43” value (HCoV-OC43 [20]; MRC5 cells) was > 132, the “anti-HCoV-OC43 activity (in words)” value (HCoV-OC43 [20]; [21]) was “strong antiviral activities” and the EC50 (DENV3) was 420 nM.
